How the values were obtained:
kale 'Red Russian' [1] = test: Visual injury of kale after insecticide, fungicide, PGRs, safeners (Example 4)
In short: (§1)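 Plants were harvested about 4 weeks post-treatment and pooled across replicates to analyse protein, amino acids, fiber, fatty acids and minerals (Na, Ca, P, Mg, K, Fe, Mn, Zn, Cu). Treatments were postemergence insecticide, fungicide, PGRs and safeners. Visual injury scored 0–100% (phytotoxicity, chlorosis, stunting).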

basil 'Genovese' = test: Visual injury of basil after insecticide, fungicide, PGRs, safeners (Example 4)
In short: as §1

kale 'Red Russian' [2] = test: Content analysis of kale: protein, amino acids, fiber, fatty acids, minerals (Example 4, Tables 12-14); format: in vivo; details: 28 DA-A
In short: as §1

[3] = 7 DA-A, rates g ai/ha: chlropyrifos 1120, chlorothalonil 2630, paclobutrazol 3.23, mepiquat-chloride 12.3, + NIS 0.25 % v/v
[4] = 7 DA-A, rates g ai/ha: chlropyrifos 3370, chlorothalonil 7900, paclobutrazol 9.7, mepiquat-chloride 37, + NIS 0.25 % v/v
[5] = 14 DA-A, rates g ai/ha: chlropyrifos 1120, chlorothalonil 2630, paclobutrazol 3.23, mepiquat-chloride 12.3, + NIS 0.25 % v/v
[6] = 14 DA-A, rates g ai/ha: chlropyrifos 3370, chlorothalonil 7900, paclobutrazol 9.7, mepiquat-chloride 37, + NIS 0.25 % v/v
[7] = 28 DA-A, rates g ai/ha: chlropyrifos 1120, chlorothalonil 2630, paclobutrazol 3.23, mepiquat-chloride 12.3, + NIS 0.25 % v/v
[8] = 28 DA-A, rates g ai/ha: chlropyrifos 3370, chlorothalonil 7900, paclobutrazol 9.7, mepiquat-chloride 37, + NIS 0.25 % v/v
[9] = 7 DA-A, rates g ai/ha: chlropyrifos 1120, chlorothalonil 2630, paclobutrazol 3.23, mepiquat-chloride 12.3, Isoxadifen 8, Napthalic anhydride 264, + NIS 0.25 % v/v
[10] = 7 DA-A, rates g ai/ha: chlropyrifos 3370, chlorothalonil 7900, paclobutrazol 9.7, mepiquat-chloride 37, Isoxadifen 16, Napthalic anhydride 527, + NIS 0.25 % v/v
[11] = 14 DA-A, rates g ai/ha: chlropyrifos 1120, chlorothalonil 2630, paclobutrazol 3.23, mepiquat-chloride 12.3, Isoxadifen 8, Napthalic anhydride 264, + NIS 0.25 % v/v
[12] = 14 DA-A, rates g ai/ha: chlropyrifos 3370, chlorothalonil 7900, paclobutrazol 9.7, mepiquat-chloride 37, Isoxadifen 16, Napthalic anhydride 527, + NIS 0.25 % v/v
[13] = 28 DA-A, rates g ai/ha: chlropyrifos 1120, chlorothalonil 2630, paclobutrazol 3.23, mepiquat-chloride 12.3, Isoxadifen 8, Napthalic anhydride 264, + NIS 0.25 % v/v
[14] = 28 DA-A, rates g ai/ha: chlropyrifos 3370, chlorothalonil 7900, paclobutrazol 9.7, mepiquat-chloride 37, Isoxadifen 16, Napthalic anhydride 527, + NIS 0.25 % v/v
[15] = first-listed rate g ai/ha: chlropyrifos ###, chlorothalonil ###, paclobutrazol 3.2, mepiquat-chloride 12, + NIS 0.3 % v/v
[16] = rates g ai/ha: chlropyrifos 1120, chlorothalonil 2630, paclobutrazol 3.23, mepiquat-chloride 12.3, + NIS 0.25 % v/v

**Q.** With `N#Cc1c(Cl)c(Cl)c(Cl)c(C#N)c1Cl` [chlorothalonil] as the compound, how does the “Phytotoxicity Chlorosis” value (kale 'Red Russian' [1]; [3]) read?
**A.** 0%

**Q.** And the “Phytotoxicity General” value (kale 'Red Russian' [1]; [3])?
**A.** 15%

**Q.** What about the “Phytotoxicity Stunting” value (kale 'Red Russian' [1]; [3]) of the same compound?
**A.** 0%

**Q.** And the “Phytotoxicity Chlorosis” value (kale 'Red Russian' [1]; [4])?
**A.** 0%

**Q.** And the “Phytotoxicity General” value (kale 'Red Russian' [1]; [4])?
**A.** 9%

**Q.** And the “Phytotoxicity Stunting” value (kale 'Red Russian' [1]; [4])?
**A.** 1%

**Q.** And the “Phytotoxicity Chlorosis” value (kale 'Red Russian' [1]; [5])?
**A.** 10%

**Q.** And the “Phytotoxicity General” value (kale 'Red Russian' [1]; [5])?
**A.** 0%

**Q.** And the “Phytotoxicity Stunting” value (kale 'Red Russian' [1]; [5])?
**A.** 5%

**Q.** And the “Phytotoxicity Chlorosis” value (kale 'Red Russian' [1]; [6])?
**A.** 6%

**Q.** And the “Phytotoxicity General” value (kale 'Red Russian' [1]; [6])?
**A.** 1%

**Q.** What about the “Phytotoxicity Stunting” value (kale 'Red Russian' [1]; [6]) of the same compound?
**A.** 5%

**Q.** And the “Phytotoxicity Chlorosis” value (kale 'Red Russian' [1]; [7])?
**A.** 3%

**Q.** And the “Phytotoxicity General” value (kale 'Red Russian' [1]; [7])?
**A.** 5%

**Q.** What about the “Phytotoxicity Stunting” value (kale 'Red Russian' [1]; [7]) of the same compound?
**A.** 6%

**Q.** What about the “Phytotoxicity Chlorosis” value (kale 'Red Russian' [1]; [8]) of the same compound?
**A.** 0%

**Q.** And the “Phytotoxicity General” value (kale 'Red Russian' [1]; [8])?
**A.** 3%

**Q.** And the “Phytotoxicity Stunting” value (kale 'Red Russian' [1]; [8])?
**A.** 8%

**Q.** And the “Phytotoxicity Chlorosis” value (basil 'Genovese'; [9])?
**A.** 5%

**Q.** And the “Phytotoxicity General” value (basil 'Genovese'; [9])?
**A.** 5%

**Q.** And the “Phytotoxicity Stunting” value (basil 'Genovese'; [9])?
**A.** 5%

**Q.** And the “Phytotoxicity Chlorosis” value (basil 'Genovese'; [10])?
**A.** 15%

**Q.** And the “Phytotoxicity General” value (basil 'Genovese'; [10])?
**A.** 3%

**Q.** What about the “Phytotoxicity Stunting” value (basil 'Genovese'; [10]) of the same compound?
**A.** 5%

**Q.** And the “Phytotoxicity Chlorosis” value (basil 'Genovese'; [11])?
**A.** 5%

**Q.** What about the “Phytotoxicity General” value (basil 'Genovese'; [11]) of the same compound?
**A.** 0%

**Q.** And the “Phytotoxicity Stunting” value (basil 'Genovese'; [11])?
**A.** 8%

**Q.** And the “Phytotoxicity Chlorosis” value (basil 'Genovese'; [12])?
**A.** 5%

**Q.** What about the “Phytotoxicity General” value (basil 'Genovese'; [12]) of the same compound?
**A.** 2%

**Q.** And the “Phytotoxicity Stunting” value (basil 'Genovese'; [12])?
**A.** 7%

**Q.** And the “Phytotoxicity Chlorosis” value (basil 'Genovese'; [13])?
**A.** 5%

**Q.** What about the “Phytotoxicity General” value (basil 'Genovese'; [13]) of the same compound?
**A.** 10%

**Q.** What about the “Phytotoxicity Stunting” value (basil 'Genovese'; [13]) of the same compound?
**A.** 7%

**Q.** What about the “Phytotoxicity Chlorosis” value (basil 'Genovese'; [14]) of the same compound?
**A.** 10%

**Q.** What about the “Phytotoxicity General” value (basil 'Genovese'; [14]) of the same compound?
**A.** 3%

**Q.** What about the “Phytotoxicity Stunting” value (basil 'Genovese'; [14]) of the same compound?
**A.** 10%

**Q.** And the “Alanine, Percent Increase over the Untreated Check (on a % dry matter basis)” value (kale 'Red Russian' [2]; [15])?
**A.** 3 % check

**Q.** And the “Aspartic acid, Percent Increase over the Untreated Check (on a % dry matter basis)” value (kale 'Red Russian' [2]; [15])?
**A.** 2 % check

**Q.** What about the “Cysteine, Percent Increase over the Untreated Check (on a % dry matter basis)” value (kale 'Red Russian' [2]; [15]) of the same compound?
**A.** −6 % check

**Q.** What about the “Glutamic acid, Percent Increase over the Untreated Check (on a % dry matter basis)” value (kale 'Red Russian' [2]; [15]) of the same compound?
**A.** 5 % check

**Q.** What about the “Glycine, Percent Increase over the Untreated Check (on a % dry matter basis)” value (kale 'Red Russian' [2]; [15]) of the same compound?
**A.** 0 % check

**Q.** And the “Iso-leucine, Percent Increase over the Untreated Check (on a % dry matter basis)” value (kale 'Red Russian' [2]; [15])?
**A.** 4 % check

**Q.** What about the “Leucine, Percent Increase over the Untreated Check (on a % dry matter basis)” value (kale 'Red Russian' [2]; [15]) of the same compound?
**A.** 4 % check

**Q.** And the “Lysine, Percent Increase over the Untreated Check (on a % dry matter basis)” value (kale 'Red Russian' [2]; [15])?
**A.** 5 % check

**Q.** And the “Methionine, Percent Increase over the Untreated Check (on a % dry matter basis)” value (kale 'Red Russian' [2]; [15])?
**A.** 2 % check

**Q.** What about the “Proline, Percent Increase over the Untreated Check (on a % dry matter basis)” value (kale 'Red Russian' [2]; [15]) of the same compound?
**A.** 6 % check

**Q.** What about the “Threonine, Percent Increase over the Untreated Check (on a % dry matter basis)” value (kale 'Red Russian' [2]; [15]) of the same compound?
**A.** 3 % check

**Q.** And the “Total Amino acids, Percent Increase over the Untreated Check (on a % dry matter basis)” value (kale 'Red Russian' [2]; [15])?
**A.** 3 % check

**Q.** And the “Total Protein, Percent Increase over the Untreated Check (on a % dry matter basis)” value (kale 'Red Russian' [2]; [15])?
**A.** 1 % check

**Q.** What about the “Valine, Percent Increase over the Untreated Check (on a % dry matter basis)” value (kale 'Red Russian' [2]; [15]) of the same compound?
**A.** 4 % check

**Q.** What about the “ADF, Percent Increase Over the Untreated Check (on a % dry matter basis)” value (kale 'Red Russian' [2]; [16]) of the same compound?
**A.** 9 % check

**Q.** And the “Calcium, Percent Increase Over the Untreated Check (on a % dry matter basis)” value (kale 'Red Russian' [2]; [16])?
**A.** −6 % check

**Q.** And the “Copper, Percent Increase Over the Untreated Check (on a % dry matter basis)” value (kale 'Red Russian' [2]; [16])?
**A.** 6 % check

**Q.** What about the “Iron, Percent Increase Over the Untreated Check (on a % dry matter basis)” value (kale 'Red Russian' [2]; [16]) of the same compound?
**A.** −1 % check

**Q.** What about the “Magnesium, Percent Increase Over the Untreated Check (on a % dry matter basis)” value (kale 'Red Russian' [2]; [16]) of the same compound?
**A.** −3 % check

**Q.** What about the “Manganese, Percent Increase Over the Untreated Check (on a % dry matter basis)” value (kale 'Red Russian' [2]; [16]) of the same compound?
**A.** 3 % check

**Q.** And the “NDF, Percent Increase Over the Untreated Check (on a % dry matter basis)” value (kale 'Red Russian' [2]; [16])?
**A.** −8 % check

**Q.** What about the “Phosphorous, Percent Increase Over the Untreated Check (on a % dry matter basis)” value (kale 'Red Russian' [2]; [16]) of the same compound?
**A.** 0 % check

— patent US20110053773A1, “METHODS OF IMPROVING NUTRITIONAL VALUE OF PLANTS” (UNIVERSITY OF TENNESSEE RESEARCH FOUNDATION, priority 2009, published 2011)
